Reference: ChEMBL document CHEMBL5096210, “Discovery of Betulinic Acid Derivatives as Potent Intestinal Farnesoid X Receptor Antagonists to Ameliorate Nonalcoholic Steatohepatitis” (J Med Chem, 2022)
The source made the active and inactive calls. The rule behind the calls is not given here.

Columns and labels:
[1] = tested on: Mus musculus; experiment: Anti-NASH activity in GAN diet-induced […] mouse assessed as reduction of glycosyl-ceramide level in serum administered orally for 12 weeks; assay type: functional, organism-based; settings: route po
[2] = tested on: Mus musculus; experiment: Anti-NASH activity in HFMCD diet-induced […] mouse assessed as reduction in ALT serum level at 30 mg/kg, po for 4 weeks; assay type: functional, organism-based
[3] = species on record: Mus musculus; experiment: Anti-NASH activity in GAN diet-induced […] mouse assessed as upregulation of Ppara mRNA expression level; assay type: functional, organism-based
[4] = tested on: Mus musculus; experiment: Anti-NASH activity in HFMCD diet-induced […] mouse assessed as reduction in AST serum level at 30 mg/kg, po for 4 weeks; assay type: functional, organism-based
[5] = species on record: Mus musculus; experiment: Anti-NASH activity in GAN diet-induced […] mouse assessed as reduction in Col1a1 level; assay type: functional, organism-based
[6] = species on record: Mus musculus; experiment: Anti-NASH activity in GAN diet-induced […] mouse assessed as reduction in Fabp4 mRNA expression level; assay type: functional, organism-based
[7] = species on record: Mus musculus; experiment: Anti-NASH activity in GAN diet-induced […] mouse assessed as reduction in Dgat2 level; assay type: functional, organism-based
[8] = Drug metabolism in C57BL6 mouse serum assessed as ((1S,3aS,5aR,5bR,7aR,9R,11aR,11bR,13aR,13bR)-9-hydroxy-1-isopropyl-5a,5b,8,8,11a-pentamethylicosahydro-1H-cyclopenta[a]chrysene-3a-carbonyl)glycine formation at 10 mg/kg, po administered as single dose measured after 2 hrs; assay type: ADME, organism-based; settings: in vivo
[9] = species on record: Mus musculus; experiment: Anti-NASH activity in GAN diet-induced […] mouse assessed as reduction in cleaved caspase 1 level; assay type: functional, organism-based
[10] = species on record: Mus musculus; experiment: Anti-NASH activity in GAN diet-induced […] mouse assessed as suppression of FXR expression; assay type: functional, organism-based
[11] = tested on: Liver; experiment: Anti-NASH activity in GAN diet-induced […] mouse liver assessed as reduction in hepatocyte collagen deposition by Oil Red O staining based assay; assay type: functional, cell-based
[12] = species on record: Mus musculus; experiment: Anti-NASH activity in GAN diet-induced […] mouse assessed as increase in bile acid level in liver; assay type: functional, organism-based
[13] = tested on: Mus musculus; experiment: Anti-NASH activity in GAN-induced mouse assessed as increase in insulin sensitivity at 10 mg/kg; assay type: functional, organism-based
[14] = target: T1, Bile acid receptor (Mus musculus) (UniProt Q60641); experiment: In vivo antagonist activity against FXR in mouse assessed as reduction in Shp level in presence of GW4064; assay type: functional
T1 sequence (whole entry): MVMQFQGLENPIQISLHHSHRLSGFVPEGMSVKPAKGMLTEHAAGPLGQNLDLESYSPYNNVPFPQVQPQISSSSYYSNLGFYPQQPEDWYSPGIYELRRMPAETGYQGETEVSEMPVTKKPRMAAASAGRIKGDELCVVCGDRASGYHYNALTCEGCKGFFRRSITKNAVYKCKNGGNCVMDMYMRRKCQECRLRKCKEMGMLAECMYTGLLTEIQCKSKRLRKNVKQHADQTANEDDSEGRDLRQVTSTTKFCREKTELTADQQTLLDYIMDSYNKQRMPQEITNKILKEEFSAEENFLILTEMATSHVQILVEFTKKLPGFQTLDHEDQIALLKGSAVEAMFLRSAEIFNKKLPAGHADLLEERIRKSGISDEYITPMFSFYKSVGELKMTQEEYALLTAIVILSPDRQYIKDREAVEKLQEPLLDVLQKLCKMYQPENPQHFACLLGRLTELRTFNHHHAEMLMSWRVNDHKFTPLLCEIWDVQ

[15] = species on record: Mus musculus; experiment: Anti-NASH activity in GAN diet-induced […] mouse assessed as suppression of Shp expression; assay type: functional, organism-based
[16] = tested on: Mus musculus; experiment: Anti-NASH activity in GAN diet-induced […] mouse assessed as reduction of ceramide level in serum administered orally for 12 weeks; assay type: functional, organism-based; settings: route po
[17] = tested on: Liver; experiment: Anti-NASH activity in GAN diet-induced […] mouse liver assessed as reduction in hepatocyte ballooning by Oil Red O staining based assay; assay type: functional, cell-based
[18] = species on record: Mus musculus; experiment: Anti-NASH activity in GAN diet-induced […] mouse assessed as reduction in N-tcp mRNA level; assay type: functional, organism-based
[19] = species on record: Mus musculus; experiment: Anti-NASH activity in GAN diet-induced […] mouse assessed as reduction in bile acid loss in cecum content; assay type: functional, organism-based
[20] = tested on: Mus musculus; experiment: Anti-NASH activity in GAN diet-induced […] mouse assessed as reduction of dihydroceramide level in serum administered orally for 12 weeks; assay type: functional, organism-based; settings: route po
[21] = species on record: Mus musculus; experiment: Anti-NASH activity in GAN diet-induced […] mouse assessed as suppression of Fgf15 expression; assay type: functional, organism-based
[22] = tested on: Mus musculus; experiment: Anti-NASH activity in GAN-induced […] mouse assessed as reduction in body weight at 10 mg/kg, IG measured after 12 weeks; assay type: functional, organism-based
[23] = species on record: Mus musculus; experiment: Anti-NASH activity in GAN diet-induced […] mouse assessed as upregulation of Cyp8b1 mRNA expression in liver; assay type: functional, organism-based
[24] = tested on: Mus musculus; experiment: Anti-NASH activity in GAN-induced […] mouse assessed as upregulation of […] expression in inguinal white adipose tissue at 10 mg/kg; assay type: functional, organism-based
[25] = tested on: Mus musculus; experiment: Anti-NASH activity in GAN-induced mouse assessed as reduction in fasting glucose level at 10 mg/kg measured upto 120 mins; assay type: functional, organism-based
[26] = Cytotoxicity against HEK293T cells cotransfected with pCMV-Script-hFXR/pGL4.11-hSHP-Luciferase incubated for 24 hrs in presence of GW4064 by celltiter-blue cell viability assay; assay type: toxicity, cell-based, HEK-293T; settings: human
[27] = target: T1, Bile acid receptor (Mus musculus); experiment: In vivo antagonist activity against FXR in mouse assessed as reduction in Fgf15 level in presence of GW4064; assay type: functional
[28] = target: T1, Bile acid receptor (Mus musculus); experiment: In vivo antagonist activity against FXR in mouse assessed as reduction in Fgf15 level in presence of CDCA; assay type: functional

For `CCCC(=O)O[C@@H]1CC[C@]2(C)[C@H]3CC[C@@H]4[C@H]5[C@H](C(C)C)CC[C@]5(C(=O)NCC(=O)O)CC[C@@]4(C)[C@]3(C)CC[C@H]2C1(C)C`, the Activity [1] was “Active”, the Activity [2] was “Active” and the Activity [3] was “Active”. For the same compound, the Activity [4] was “Active”, the Activity [5] was “Active” and the Activity [6] was “Active”. The Activity [7] was “Active”, the Drug metabolism [8] was “Metabolite_Detected” and the Activity [9] was “Active”. The Activity [10] was “Active”, the Activity [11] was “Active” and the Activity [12] was “Active”. The Activity [13] was “Active”, the Activity [14] was “Active” and the Activity [15] was “Active”. For the same compound, the Activity [16] was “Active”, the Activity [17] was “Active” and the Activity [18] was “Active”. The Activity [19] was “Active”, the Activity [20] was “Active” and the Activity [21] was “Active”. For the same compound, the Activity [22] was “Active”, the Activity [23] was “Active” and the Activity [24] was “Active”. The Activity [25] was “Active”, the IC50 at 24 h [26] was over 100 µM and the Activity [27] was “Active”. For the same compound, the Activity [28] was “Active”.
